Measured values from patent publication US8791267B2, “Biaryl PDE4 inhibitors for treating inflammatory, cardiovascular and CNS disorders” (Decode Genetics EHF, priority 2007, dated 2014).
Counter-ions that a name gives are not always drawn.

What was measured:
[1] = target: PDE4 (Homo sapiens, UniProt Q08499); assay: In-vitro assay for PDE4 enzymes, real-time enzyme-coupled spectrophotometric assay (Table 9); format: biochemical; details: human PDE4D; activity class, Table 9; read-out: hPDE4D
[2] = target: PDE4B (Homo sapiens, UniProt Q07343); assay: In-vitro assay for PDE4 enzymes, real-time enzyme-coupled spectrophotometric assay, PDE4B Activity (Table 10); format: biochemical; details: human PDE4B (hPDE4B), enzyme-coupled spectrophotometric assay; read-out: PDE4B Activity, hPDE4B
Sequence of PDE4B (Q07343 whole entry): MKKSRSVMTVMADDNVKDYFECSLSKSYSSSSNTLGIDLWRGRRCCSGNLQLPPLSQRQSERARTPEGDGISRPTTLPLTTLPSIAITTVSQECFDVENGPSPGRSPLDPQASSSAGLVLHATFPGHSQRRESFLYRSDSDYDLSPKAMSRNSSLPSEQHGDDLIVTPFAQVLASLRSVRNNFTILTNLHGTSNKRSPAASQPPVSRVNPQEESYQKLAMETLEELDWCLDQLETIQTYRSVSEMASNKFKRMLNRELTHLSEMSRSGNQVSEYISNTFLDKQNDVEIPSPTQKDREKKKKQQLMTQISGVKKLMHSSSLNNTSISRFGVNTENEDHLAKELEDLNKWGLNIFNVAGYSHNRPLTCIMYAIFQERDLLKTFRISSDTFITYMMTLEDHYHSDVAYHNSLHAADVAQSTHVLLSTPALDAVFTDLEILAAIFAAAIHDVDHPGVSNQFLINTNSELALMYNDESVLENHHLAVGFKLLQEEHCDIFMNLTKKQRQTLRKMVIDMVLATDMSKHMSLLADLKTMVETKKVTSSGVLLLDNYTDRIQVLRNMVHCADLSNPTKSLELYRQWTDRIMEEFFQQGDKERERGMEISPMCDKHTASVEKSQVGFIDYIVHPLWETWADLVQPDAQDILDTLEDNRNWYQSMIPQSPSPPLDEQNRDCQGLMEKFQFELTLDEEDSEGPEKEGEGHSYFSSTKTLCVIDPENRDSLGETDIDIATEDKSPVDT

Sequence of PDE4 (Q08499 whole entry): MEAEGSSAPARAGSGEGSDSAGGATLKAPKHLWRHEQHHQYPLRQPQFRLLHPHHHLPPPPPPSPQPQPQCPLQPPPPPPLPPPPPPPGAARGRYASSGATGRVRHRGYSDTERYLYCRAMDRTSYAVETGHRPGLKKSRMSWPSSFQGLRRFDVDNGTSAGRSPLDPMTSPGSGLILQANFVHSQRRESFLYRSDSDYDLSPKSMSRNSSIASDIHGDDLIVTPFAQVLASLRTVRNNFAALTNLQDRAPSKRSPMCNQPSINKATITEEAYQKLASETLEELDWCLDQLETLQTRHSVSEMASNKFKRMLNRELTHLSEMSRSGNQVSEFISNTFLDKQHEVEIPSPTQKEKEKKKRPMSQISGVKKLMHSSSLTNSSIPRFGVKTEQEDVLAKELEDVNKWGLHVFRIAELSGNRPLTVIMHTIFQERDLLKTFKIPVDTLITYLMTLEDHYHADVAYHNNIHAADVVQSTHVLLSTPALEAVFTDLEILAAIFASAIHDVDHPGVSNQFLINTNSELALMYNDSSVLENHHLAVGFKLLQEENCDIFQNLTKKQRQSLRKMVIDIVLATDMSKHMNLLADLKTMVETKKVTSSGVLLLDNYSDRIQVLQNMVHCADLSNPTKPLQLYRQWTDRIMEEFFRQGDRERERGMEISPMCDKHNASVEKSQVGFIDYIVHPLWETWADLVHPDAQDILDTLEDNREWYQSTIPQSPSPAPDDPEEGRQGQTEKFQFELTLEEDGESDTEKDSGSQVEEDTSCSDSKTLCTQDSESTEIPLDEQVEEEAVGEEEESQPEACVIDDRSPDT

Compound: CC(=O)Nc1ccc(Cc2ccc(OC(F)F)c(-c3cccc(Br)c3)c2F)cc1 [P-313]
- IC50 [1]: < 5 µM
- IC50 [2]: < 5 µM

Compound: COc1ccc(Cn2cnc3ccccc32)cc1-c1ccc2nonc2c1 [P-014, 5-(5-Benzoimidazol-1-ylmethyl-2-methoxy-phenyl)-benzo[1,2,5]oxadiazole]
- IC50 [1]: 5 to 20 µM
- IC50 [2]: 5 to 20 µM

Compound: O=[N+]([O-])c1cccc(-c2c(OC(F)F)ccc(Cc3ccc(F)cc3)c2F)c1 [P-116]
- IC50 [1]: < 5 µM
- IC50 [2]: < 5 µM

Compound: COc1ccc(Cc2ccc(CN)c(O)c2)c(F)c1-c1cccc(Cl)c1 [P-296]
- IC50 [1]: < 5 µM
- IC50 [2]: 21 to 40 µM

Compound: CNc1ccc(Cc2ccc(OC)c(-c3cccc(C(C)=O)c3)c2F)cn1 [P-336]
- IC50 [1]: < 5 µM
- IC50 [2]: < 5 µM

Compound: COc1ccc(Cc2ccc(CNC(N)=O)c(F)c2)c(F)c1-c1cccc(C(C)=O)c1 [P-330]
- IC50 [1]: < 5 µM
- IC50 [2]: < 5 µM

Compound: COc1ccc(C[S+]([O-])c2ccc(F)cc2)cc1-c1cccc([N+](=O)[O-])c1 (stereo not shown) [P-192, 5-(4-Fluoro-benzenesulfinylmethyl)-2-methoxy-3′-nitro-biphenyl]
- IC50 [1]: 5 to 20 µM
- IC50 [2]: 5 to 20 µM

Compound: COc1ccc(Cn2cncc2C(N)=O)c(F)c1-c1cccc(Cl)c1 [P-535, 3-(3′-Chloro-2-fluoro-6-methoxy-biphenyl-3-ylmethyl)-3H-imidazole-4-carboxylic acid amide]
- IC50 [1]: < 5 µM
- IC50 [2]: < 5 µM

Compound: NC(=O)Nc1ccc(Cc2ccc(OC(F)F)c(-c3cccc(Br)c3)c2F)cc1 [P-323]
- IC50 [1]: < 5 µM
- IC50 [2]: < 5 µM

Compound: CCNC(=O)NCc1ccc(Cc2ccc(OC)c(-c3cccc(Cl)c3)c2)cn1 [P-597, 1-[5-(3′-chloro-6-methoxy-biphenyl-3-ylmethyl)-pyridin-2-ylmethyl]-3-ethyl-urea hydrochloride]
- IC50 [1]: < 5 µM
- IC50 [2]: < 5 µM

Compound: COc1ccc(Cc2ccc3[nH]c(=O)oc3c2)c(F)c1-c1cccc(Cl)c1 [P-263]
- IC50 [1]: < 5 µM
- IC50 [2]: < 5 µM

Compound: COc1ccc(Cc2ccc(N)cc2)cc1-c1cccc([N+](=O)[O-])c1 [P-113]
- IC50 [1]: < 5 µM
- IC50 [2]: < 5 µM

Compound: COc1ccc(Cc2cnc(NC(N)=O)nc2)c(F)c1-c1cccc(C(C)=O)c1 [P-362, [5-(3′-Acetyl-2-fluoro-6-methoxy-biphenyl-3-ylmethyl)-pyrimidin-2-yl]-urea]
- IC50 [1]: < 5 µM
- IC50 [2]: < 5 µM

Compound: COc1ccc(CC2CCCS2)c(F)c1-c1cccc([N+](=O)[O-])c1 (stereo not shown) [P-128, 2-(2-fluoro-6-methoxy-3′-nitro-biphenyl-3-ylmethyl)-tetrahydro-thiophene]
- IC50 [1]: < 5 µM
- IC50 [2]: < 5 µM

Compound: CCNC(=O)Nc1ccc(Cc2ccc(OC)c(-c3cccc(C#N)c3)c2)cn1 [P-400, 1-[5-(3′-Cyano-6-methoxy-biphenyl-3-ylmethyl)-pyridin-2-yl]-3-ethyl-urea]
- IC50 [1]: < 5 µM
- IC50 [2]: < 5 µM

Compound: COc1ccc(Cc2ccc[nH]c2=O)c(O)c1-c1cccc(N)c1 [P-185]
- IC50 [1]: 5 to 20 µM
- IC50 [2]: 21 to 40 µM

Compound: [2H]C([2H])([2H])Oc1ccc(Cc2ccc(NC(N)=O)cc2)cc1-c1cccc(Cl)c1 [P-516]
- IC50 [1]: < 5 µM
- IC50 [2]: < 5 µM

Compound: COc1ccc(Cc2ccc(NC(C)=O)cc2)c(F)c1-c1cccc(Cl)c1 [P-228]
- IC50 [1]: < 5 µM
- IC50 [2]: < 5 µM

Compound: COc1ccc(Cn2cnc(C(N)=O)c2)c(F)c1-c1cccc(Cl)c1 [P-534, 1-(3′-Chloro-2-fluoro-6-methoxy-biphenyl-3-ylmethyl)-1H-imidazole-4-carboxylic acid amide]
- IC50 [1]: < 5 µM
- IC50 [2]: < 5 µM

Compound: COc1ccc(Cc2ccc(NS(C)(=O)=O)cc2)cc1-c1cccc(Cl)c1 [P-246, N-[4-(3′-Chloro-6-methoxy-biphenyl-3-ylmethyl)-phenyl]-methanesulfonamide]
- IC50 [1]: 5 to 20 µM
- IC50 [2]: < 5 µM

Compound: COc1cccc(-c2cc(CN3CCCC3=O)ccc2OC)c1 [P-184, 1-(6,3′-Dimethoxy-biphenyl-3-ylmethyl)-pyrrolidin-2-one]
- IC50 [1]: 5 to 20 µM
- IC50 [2]: 5 to 20 µM

Compound: NC(=O)Nc1ccc(Cc2ccc(OC[C@@H]3CCCN3)c(-c3cccc(Cl)c3)c2)cc1 [P-563, {4-[3′-Chloro-6-((S)-1-pyrrolidin-2-ylmethoxy)-biphenyl-3-ylmethyl]-phenyl}-urea]
- IC50 [1]: < 5 µM
- IC50 [2]: 5 to 20 µM

Compound: COc1ccc(CN2CCCC2=O)cc1-c1cccc(Cl)c1 [P-218, 1-(3′-chloro-6-methoxy-biphenyl-3-ylmethyl)-pyrrolidin-2-one]
- IC50 [1]: < 5 µM
- IC50 [2]: < 5 µM

Compound: COc1ccc(Cc2ccc(S(N)(=O)=O)cc2)c(F)c1-c1cccc(C(C)=O)c1 [P-304]
- IC50 [1]: < 5 µM
- IC50 [2]: < 5 µM

Compound: COc1ccc(Cc2ccc(NC(N)=O)nc2)c(F)c1-c1cccc(Cl)c1 [P-259]
- IC50 [1]: < 5 µM
- IC50 [2]: < 5 µM

Compound: CCNC(=O)Nc1ncc(Cc2ccc(OC)c(-c3cccc(Cl)c3)c2F)cn1 [P-619]
- IC50 [1]: < 5 µM
- IC50 [2]: < 5 µM

Compound: COc1ccc(Cc2ccc(NS(C)(=O)=O)nc2)c(F)c1-c1cccc(C(C)=O)c1 [P-297]
- IC50 [1]: < 5 µM
- IC50 [2]: 5 to 20 µM

Compound: COc1ccc(Cc2ccc(NCC(N)=O)nc2)c(F)c1-c1cccc(Cl)c1 [P-471]
- IC50 [1]: < 5 µM
- IC50 [2]: < 5 µM

Compound: CCNC(=O)Nc1nc(Cc2ccc(OC)c(-c3cccc(Cl)c3)c2F)cs1 [P-346, 1-[4-(3′-Chloro-2-fluoro-6-methoxy-biphenyl-3-ylmethyl)-thiazol-2-yl]-3-ethyl-urea]
- IC50 [1]: < 5 µM
- IC50 [2]: 5 to 20 µM

Compound: CCOC(=O)N(CC)c1ccc(Cc2ccc(OC)c(-c3cccc(Cl)c3)c2F)cn1 [P-359]
- IC50 [1]: < 5 µM
- IC50 [2]: 5 to 20 µM

Compound: COc1ccc(Cc2ccc(N(C)C)nc2)c(F)c1-c1cccc(C(C)=O)c1 [P-332, 1-[3′-(6-Dimethylamino-pyridin-3-ylmethyl)-2′-fluoro-6′-methoxy-biphenyl-3-yl]-ethanone]
- IC50 [1]: < 5 µM
- IC50 [2]: < 5 µM

Compound: NC(=O)Nc1ccc(Cc2ccc(OC3COC3)c(-c3cccc(Cl)c3)c2)cc1 [P-555, {4-[3′-Chloro-6-(oxetan-3-yloxy)-biphenyl-3-ylmethyl]-phenyl}-urea]
- IC50 [1]: < 5 µM
- IC50 [2]: < 5 µM

Compound: CCNC(=O)Nc1ccc(Cc2ccc(OC)c(-c3cccc(-c4nnn[nH]4)c3)c2F)cn1 [P-513, 1-Ethyl-3-{5-[2-fluoro-6-methoxy-3′-(1H-tetrazol-5-yl)-biphenyl-3-ylmethyl]-pyridin-2-yl}-urea]
- IC50 [1]: 5 to 20 µM
- IC50 [2]: 21 to 40 µM

Compound: COc1ccc(Cc2cccc(N)c2)c(F)c1-c1cccc(Cl)c1 [P-234]
- IC50 [1]: < 5 µM
- IC50 [2]: < 5 µM

Compound: COc1ccc(CN2C(=O)c3ccncc3C2=O)cc1-c1cccc([N+](=O)[O-])c1 [P-043, 2-(6-Methoxy-3′-nitro-biphenyl-3-ylmethyl)-pyrrolo[3,4-c]pyridine-1,3-dione]
- IC50 [1]: < 5 µM
- IC50 [2]: 5 to 20 µM

Compound: COc1ccc(Cc2ccc3cnc(C(N)=O)n3c2)c(F)c1-c1cccc(Cl)c1 [P-445, 6-(3′-chloro-2-fluoro-6-methoxy-biphenyl-3-ylmethyl)-imidazo[1,5-a]pyridine-3-carboxylic acid amide]
- IC50 [1]: < 5 µM
- IC50 [2]: 5 to 20 µM

Compound: COc1ccc(C(=O)c2ccc(N)cc2)cc1-c1ccc2c(c1)OCCO2 [P-578]
- IC50 [1]: < 5 µM
- IC50 [2]: < 5 µM

Compound: COc1ccc(CO)c(O)c1-c1cccc([N+](=O)[O-])c1 [Cmpd P-149]
- IC50 [2]: 5 to 20 µM

Compound: COc1ccc(Cc2cc(N)cc(O)c2)c(F)c1-c1cccc(Cl)c1 [P-324, 3-Amino-5-(3′-chloro-2-fluoro-6-methoxy-biphenyl-3-ylmethyl)-phenol]
- IC50 [2]: 21 to 40 µM
